Laboratory results as given in patent publication US11370794B2, “Toll-like receptor antagonist compounds and methods of use” (Dynavax Technologies Corporation, priority 2016, dated 2022).

How the values were obtained:
[1] = target: T1, TLR-4 (Homo sapiens, UniProt O00206+Q9Y6Y9); assay: Receptor specificity in primary human leukocytes: TLR-4; format: cell-based
T1 construct: related toll-like receptor family members and other nucleic acid intracellular signaling receptors in primary human leukocytes; endogenous in cells; host or cells: primary human leukocytes
T1 sequence (O00206 24-839): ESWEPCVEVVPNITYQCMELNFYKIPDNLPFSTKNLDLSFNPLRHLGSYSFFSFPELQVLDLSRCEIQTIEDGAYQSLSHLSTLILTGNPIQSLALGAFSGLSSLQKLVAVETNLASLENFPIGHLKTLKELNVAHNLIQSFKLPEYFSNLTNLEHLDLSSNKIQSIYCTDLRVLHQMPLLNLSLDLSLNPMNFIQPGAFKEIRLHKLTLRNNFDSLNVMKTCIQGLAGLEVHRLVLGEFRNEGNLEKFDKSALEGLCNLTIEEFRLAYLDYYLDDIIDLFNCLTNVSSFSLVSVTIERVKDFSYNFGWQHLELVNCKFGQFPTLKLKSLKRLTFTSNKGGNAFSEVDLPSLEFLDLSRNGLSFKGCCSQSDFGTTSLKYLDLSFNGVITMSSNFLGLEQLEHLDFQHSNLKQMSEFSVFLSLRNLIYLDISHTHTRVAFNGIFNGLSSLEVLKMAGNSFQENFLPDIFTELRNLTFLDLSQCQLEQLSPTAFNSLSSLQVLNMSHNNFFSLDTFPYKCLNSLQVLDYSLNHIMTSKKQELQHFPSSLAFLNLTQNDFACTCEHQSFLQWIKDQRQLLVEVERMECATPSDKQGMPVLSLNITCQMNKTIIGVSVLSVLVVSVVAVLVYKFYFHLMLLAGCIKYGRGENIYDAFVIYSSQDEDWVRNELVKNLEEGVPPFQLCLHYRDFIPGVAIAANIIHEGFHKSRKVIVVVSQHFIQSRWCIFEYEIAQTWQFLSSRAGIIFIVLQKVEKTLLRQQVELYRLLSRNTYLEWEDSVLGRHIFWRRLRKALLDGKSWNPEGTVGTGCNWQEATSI
T1 sequence (Q9Y6Y9 17-160 limits assumed): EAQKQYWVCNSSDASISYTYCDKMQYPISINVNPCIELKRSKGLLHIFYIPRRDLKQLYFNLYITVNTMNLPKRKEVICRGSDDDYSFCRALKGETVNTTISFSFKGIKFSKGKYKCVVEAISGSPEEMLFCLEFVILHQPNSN
Description: Example B5—Receptor Specificity
Representative compounds were tested for antagonist activity against related toll-like receptor family members and other nucleic acid intracellular signaling receptors in primary human leukocytes. The compounds were Compound Nos. 5 and 9, and they were tested for their ability to inhibit human RIG-I, TLR-2, TLR-4, and TLR-5. With one exception, neither compound was able to inhibit these receptors greater than 50% at 10 μM.

[2] = target: T2, human TLR9 (Homo sapiens, UniProt Q9NR96); assay: Inhibition of human TLR9 in human B cells (IL-6 ELISA); format: cell-based; settings: for IC50: human B cells, agonist 1018 ISS 1 μM, IL-6 readout, 48 hours, range about 0.01 to 10 μM, read-out: Human TLR9 IC50; for inhibits TLR9-dependent responses (in words): summary statement of the description
T2 construct: endogenous in cells; host or cells: primary human B cells (CD19 microbeads) from buffy coats of healthy donors
T2 sequence (Q9NR96 26-1032): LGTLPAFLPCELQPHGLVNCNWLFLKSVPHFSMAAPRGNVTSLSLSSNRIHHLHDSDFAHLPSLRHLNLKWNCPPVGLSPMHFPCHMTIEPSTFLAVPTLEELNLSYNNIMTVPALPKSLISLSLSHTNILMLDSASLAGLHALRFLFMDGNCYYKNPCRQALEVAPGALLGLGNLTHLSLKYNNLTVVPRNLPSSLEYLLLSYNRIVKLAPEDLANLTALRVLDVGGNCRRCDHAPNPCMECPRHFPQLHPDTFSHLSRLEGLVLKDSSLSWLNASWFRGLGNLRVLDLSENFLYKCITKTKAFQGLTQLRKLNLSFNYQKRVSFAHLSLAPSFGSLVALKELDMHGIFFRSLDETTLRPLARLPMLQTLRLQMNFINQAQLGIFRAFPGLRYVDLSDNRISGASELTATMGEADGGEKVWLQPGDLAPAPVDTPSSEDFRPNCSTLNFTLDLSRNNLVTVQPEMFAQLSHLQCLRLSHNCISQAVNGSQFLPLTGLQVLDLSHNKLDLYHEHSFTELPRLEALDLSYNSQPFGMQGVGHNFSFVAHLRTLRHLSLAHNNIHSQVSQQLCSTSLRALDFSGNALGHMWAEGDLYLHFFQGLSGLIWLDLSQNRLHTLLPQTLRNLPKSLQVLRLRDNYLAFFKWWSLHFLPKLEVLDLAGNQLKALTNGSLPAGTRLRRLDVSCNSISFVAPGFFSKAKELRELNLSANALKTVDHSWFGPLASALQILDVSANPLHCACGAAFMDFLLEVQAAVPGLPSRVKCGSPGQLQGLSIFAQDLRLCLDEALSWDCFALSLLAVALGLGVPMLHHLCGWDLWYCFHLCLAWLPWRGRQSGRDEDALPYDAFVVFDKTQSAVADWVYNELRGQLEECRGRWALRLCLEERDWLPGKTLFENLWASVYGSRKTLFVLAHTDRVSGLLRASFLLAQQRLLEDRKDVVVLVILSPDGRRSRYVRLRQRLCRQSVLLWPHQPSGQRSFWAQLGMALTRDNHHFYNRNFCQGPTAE
Procedure, shortened: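 Primary human B cells (CD19-isolated from donor buffy coats), ~300,000 per well, treated with compound (about 0.01–10 μM, some 0.001–30 μM) then 1 μM CpG oligonucleotide 1018 ISS. After 48 hours at 37° C, supernatant IL-6 measured by ELISA; IC50 from concentration-response of TLR9-dependent activity.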

[3] = Metabolic stability in human liver microsomes; format: in vitro ADME; settings: 0.5 mg/mL microsomal protein, 1.5 μM compound, 37° C.; for half-life at 1.5 μM: 0-45 minutes, read-out: T1/2 in human liver microsomes
Description: Example B7—Metabolic Stability
The stability of compounds in human liver microsomes was tested. Human liver microsomes (from BD Gentest) were spiked with compounds to a final liver microsomal protein concentration of 0.5 mg/mL and a final compound concentration of 1.5 μM. Samples were incubated for 0, 5, 15, 30, 45 minutes at 37° C. The reaction was stopped by the addition of acetonitrile. An aliquot of the stopped reaction was mixed with ultra-pure water (Millipore, ZMQS50F01) and analyzed by liquid chromatography/electrospray ionization mass spectroscopy.

[4] = Plasma stability in human plasma; format: in vitro ADME; settings: plasma (90%); 90% human plasma, 2 μM compound, 37° C., 0-60 minutes; read-out: T1/2 in human plasma
Description: Example B6—Plasma Stability
The stability of compounds in human plasma was tested. Human plasma was spiked with compound to final concentration of 90% plasma and 2 μM compound. Samples were incubated for 0, 5, 15, 30, 45 and 60 minutes at 37° C. The reaction was stopped by the addition of acetonitrile. An aliquot of the stopped reaction was mixed with ultra-pure water (Millipore, ZMQS50F01) and analyzed by liquid chromatography/electrospray ionization mass spectroscopy.

Structure (SMILES)	inhibition at 10 µM [1] [%]	IC50 [2] [nM]	CLint scaled at 1.5 μM [3] [mL/min/kg]	half-life at 1.5 μM [3] [min]	half-life at 2 μM [4] [min]	inhibits TLR9-dependent responses (in words) [2]
Cc1ccc(-n2nc3c(N4CCC(CCC(=O)NCCN(C)C)CC4)nnc(C)c3c2C)cc1 [Compound No. 9, 3-(1-(3,4-dimethyl-2-(p-tolyl)-2H-pyrazolo[3,4-d]pyridazin-7-yl)piperidin-4-yl)-N-(2-(dimethylamino)ethyl)propanamide]	≤ 50	3	–	–	–	–
Cc1ccc(-n2nc3c(N4CCC(C(=O)NC5CN(C)C5)CC4)nnc(C)c3c2C)cc1 [Compound No. 3, 1-(3,4-dimethyl-2-(p-tolyl)-2H-pyrazolo[3,4-d]pyridazin-7-yl)-N-(1-methylazetidin-3-yl)piperidine-4-carboxamide]	–	143	4.5	384	207	–
Cc1ccc(-n2nc3c(N4CCC(C(=O)NCCCc5c[nH]cn5)CC4)nnc(C)c3c2C)cc1 [Compound No. 6, N-(3-(1H-imidazol-4-yl)propyl)-1-(3,4-dimethyl-2-(p-tolyl)-2H-pyrazolo[3,4-d]pyridazin-7-yl)piperidine-4-carboxamide]	–	154	–	–	–	–
Cc1ccc(-n2nc3c(N4CCC(C(=O)NCCCN(C)Cc5ccccc5)CC4)nnc(C)c3c2C)cc1 [Compound No. 1, N-(3-(benzyl(methyl)amino)propyl)-1-(3,4-dimethyl-2-(p-tolyl)-2H-pyrazolo[3,4-d]pyridazin-7-yl)piperidine-4-carboxamide]	–	40	347	5	224	inhibit
Cc1ccc(-n2nc3c(N4CCC(C(=O)NCC(C)(C)CNc5ccccc5)CC4)nnc(C)c3c2C)cc1 [2-1]	–	4650	–	–	–	–
Cc1ccc(-n2nc3c(N4CCC(C(=O)N5CCN(Cc6ccccc6)CC5)CC4)nnc(C)c3c2C)cc1 [Compound No. 2, (4-benzylpiperazin-1-yl)(1-(3,4-dimethyl-2-(p-tolyl)-2H-pyrazolo[3,4-d]pyridazin-7-yl)piperidin-4-yl)methanone]	–	242	–	–	–	inhibit
Cc1ccc(-n2nc3c(N4CCC(C(=O)NCCCN(C)C)CC4)nnc(C)c3c2C)cc1 [Compound No. 5, 1-(3,4-dimethyl-2-(p-tolyl)-2H-pyrazolo[3,4-d]pyridazin-7-yl)-N-(3-(dimethylamino)propyl)piperidine-4-carboxamide]	≤ 50	40	2.2	801	1070	inhibit
Cc1ccc(-n2nc3c(N4CCC(C(=O)NC5CN(Cc6ccccc6)C5)CC4)nnc(C)c3c2C)cc1 [Compound No. 4, N-(1-benzylazetidin-3-yl)-1-(3,4-dimethyl-2-(p-tolyl)-2H-pyrazolo[3,4-d]pyridazin-7-yl)piperidine-4-carboxamide]	–	93	–	–	–	inhibit
